Data taken from patent US12213479B2, “Monoterpenoid/phenylpropanoid-containing compounds and methods of their making and use as herbicides” (KITTRICH CORPORATION, priority 2016, dated 2025).

Legend:
corn seeds = assay: Germination assay, corn seeds coated with compound; conditions: for inhibition of corn seed germination: seed coating 1% weight compound/weight seed, 3, 5, 7 days
Soybean plants [1] = assay: Soil drench assay, soybean plants; assay type: in vivo; set-up: key to phytotoxicity (qualitative), soil drench: NOE: No Observable Effect; XXX: Dead; -: the lowest phytotoxic effect; --: phytotoxicity that did not result in death; ---: phytotoxicity that did not result in death; ------: the highest; conditions: for phytotoxicity (qualitative), soil drench: Soybean, 40 mL; for overall phytotoxicity to soybean plants, soil drench: 0.5%-1% formulations
Method: Soybean plants were planted under 1 cm of potting soil and watered every 2-3 days as necessary. Plants were grown in pots (6″ wide×4.5″ deep) with approximately 800 mL of soil for each plant. Seeds germinated approximately 3-5 days after being planted. Plants were grown in a greenhouse under a constant temperature and light environment (25±5° C., 12 hr: 12 hr light: dark cycle). Plants were grown until reaching 1-2 weeks old and 3-4 weeks old; these plants served as the “young” and “old” plants in this study, respectively.
Formulations of the various active ingredients were created using the monoterpenoid derivatives, potassium hydroxide, and Triton-X 100™ to aid in the solvation of the active ingredient. Formulations consisted of 0.5%-1% active ingredient by weight (0.5-1 g/100 ml water), with a 1:1 molar ratio of potassium hydroxide used to aid in the solvation (135-269 mg/100 mL for both thymyloxyacetic acid and carvacryloxyacetic acid). […] Formulations were applied to the soil next to the base of the stem of the plant to avoid foliar contact. Observations were performed 2 days and 3 weeks after soil drench to determine the effects of the treatments on the various types and stages of plants.

Corn plants = assay: Soil drench assay, corn plants; assay type: in vivo; set-up: key to phytotoxicity (qualitative), soil drench: NOE: No Observable Effect; XXX: Dead; -: the lowest phytotoxic effect; --: phytotoxicity that did not result in death; ---: phytotoxicity that did not result in death; ------: the highest; conditions: for phytotoxicity (qualitative), soil drench: Corn, 40 mL; for overall phytotoxicity to corn plants, soil drench: 0.5%-1% formulations
Method: Corn plants were planted under ½″ of potting soil and watered every 2-3 days as necessary. Plants were grown in potting plants (6″ wide×4.5″ deep) with approximately 800 mL of soil for each plant. Seeds germinated approximately 4-7 days after being planted. Plants were grown in a greenhouse under a constant temperature and light environment (25±5° C., 12 hr: 12 hr light: dark cycle). Plants were grown until reaching 1-2 weeks old and 3-4 weeks old; these plants served as the “young” and “old” plants in this study, respectively. Formulations of the various active ingredients were created using the monoterpenoid derivatives, potassium hydroxide, and Triton-X 100™ to aid in the solvation of the active ingredient. […] Formulations were applied to the soil next to the base of the stem of the plant to avoid foliar contact. Observations were performed 2 days and 3 weeks after soil drench to determine the effects of the treatments on the various types and stages of plants.

soybeans = assay: Germination assay, soybeans coated with compound; assay type: in vivo, soybean; conditions: beans coated in 1% weight compound/weight bean
Text: Soybeans were susceptible to Aphis glycines infestation and were not determined to be a biotype that was resistant to infestation, which could confide results. Germination typically occurred between 3-5 days after moistening.

Soybean plants [2] = assay: Soil drench assay, soybean plants; assay type: in vivo; set-up: key: NOE: No Observable Effect; XXX: Dead; -: the lowest phytotoxic effect; --: phytotoxicity that did not result in death; ---: phytotoxicity that did not result in death; ------: the highest; conditions: 3-weeks after treatment, Old Plants, 7%, 40 mL
[3] = 2-days after treatment, Old Plants, 0.50%
[4] = 2-days after treatment, Old Plants, 1%
[5] = 2-days after treatment, Young Plants, 0.50%
[6] = 2-days after treatment, Young Plants, 1%
[7] = 3-weeks after treatment, Old Plants, 0.50%
[8] = 3-weeks after treatment, Young Plants, 0.50%
[9] = 3-weeks after treatment, Young Plants, 1%
[10] = 3-weeks after treatment, Old Plants, 1%

| SMILES | inhibition of corn seed germination (corn seeds) | phytotoxicity (qualitative), soil drench (Soybean plants [1]; [3]) | phytotoxicity (qualitative), soil drench (Soybean plants [1]; [4]) | phytotoxicity (qualitative), soil drench (Soybean plants [1]; [5]) | phytotoxicity (qualitative), soil drench (Soybean plants [1]; [6]) | phytotoxicity (qualitative), soil drench (Soybean plants [1]; [7]) | phytotoxicity (qualitative), soil drench (Soybean plants [1]; [8]) | phytotoxicity (qualitative), soil drench (Soybean plants [1]; [9]) | phytotoxicity (qualitative), soil drench (Corn plants; [3]) | phytotoxicity (qualitative), soil drench (Corn plants; [4]) | phytotoxicity (qualitative), soil drench (Corn plants; [5]) | phytotoxicity (qualitative), soil drench (Corn plants; [6]) | phytotoxicity (qualitative), soil drench (Corn plants; [7]) | phytotoxicity (qualitative), soil drench (Corn plants; [10]) | phytotoxicity (qualitative), soil drench (Corn plants; [8]) | phytotoxicity (qualitative), soil drench (Corn plants; [9]) | inhibition of soybean germination/growth (words) (soybeans) | phytotoxicity (qualitative), soil drench (Soybean plants [2]) | overall phytotoxicity to soybean plants, soil drench (Soybean plants [1]) | overall phytotoxicity to corn plants, soil drench (Corn plants) | other results |
| --- | --- | --- | --- | --- | --- | --- | --- | --- | --- | --- | --- | --- | --- | --- | --- | --- | --- | --- | --- | --- | --- |
| C=CCc1ccc(OCC(=O)OC)c(OC)c1 [eugenyloxyacetic acid methyl ester] | most capable of inhibiting the growth of corn seeds |  |  |  |  |  |  |  |  |  |  |  |  |  |  |  |  |  |  |  |  |
| C=CCc1ccc(OCC(=O)O)c(OC)c1 [eugenyloxyacetic acid, 2-(4-allyl-2-methoxyphenoxy)acetic acid] |  | - | - | - | -- | XXX | - | XXX | NOE | - | NOE | NOE | - | -- | - | -- | prevented the growth of soybeans | - |  |  | corn seed germination at day 3 (corn seeds; seed coating, day 3): some level of germination |
| COC(=O)COc1cc(C)ccc1C(C)C [thymyloxyacetate methyl ester] |  | --- |  | --- |  | XXX | XXX | XXX | -- | -- | -- | -- | XXX | XXX | XXX | XXX |  | XXX | significantly inhibited the growth of soybeans | most phytotoxic to corn |  |
| COc1cc(C(=O)O)ccc1OCC(=O)O [vanillic acid-oxyacetic acid, 4-(carboxymethoxy)-3-methoxybenzoic acid] | significantly inhibited by all compounds screened except for | NOE | NOE | NOE | NOE | NOE | NOE | NOE | NOE | NOE | NOE | NOE | NOE | NOE | NOE | NOE |  | NOE | did not cause phytotoxic effects | did not produce significant phytotoxic symptoms |  |
| COc1cc(C=O)ccc1OCC(=O)O [vanillyloxyacetic acid, 2-(4-formyl-2-methoxyphenoxy)acetic acid] | significantly inhibited by all compounds screened except for | NOE | NOE | NOE | NOE | NOE | NOE | NOE | NOE | NOE | NOE | NOE | NOE | NOE | NOE | NOE | little to no inhibitory effect | NOE | did not cause phytotoxic effects | did not produce significant phytotoxic symptoms | inhibition of soybean germination/growth (words) (soybeans; listed as Vanillyloxyacetic acid): does not produce significant inhibition of plant growth |
